Results as given in a compilation of properties of binary mixtures (doi:10.1021/acs.jpcc.9b02625).

Test: xn = mol fraction of the nth substance listed
Settings: 303.15 K, 101 kPa

## O=S(=O)([N-]S(=O)(=O)C(F)(F)F)C(F)(F)F.[Li+] + O=S1(=O)CCCC1
x1 = 0.1
  electrical conductivity: 0.274 S/m
  viscosity: 28 mPa·s
x1 = 0.111
  electrical conductivity: 0.262 S/m
  viscosity: 31 mPa·s
x1 = 0.2
  electrical conductivity: 0.166 S/m
  viscosity: 90.3 mPa·s
x1 = 0.25
  electrical conductivity: 0.104 S/m
  viscosity: 175 mPa·s
x1 = 0.333
  electrical conductivity: 0.042 S/m
  viscosity: 627 mPa·s
